Measured values from patent US11691984B2, “Compounds and methods for DCAF-mediated protein degradation” (The Scripps Research Institute, priority 2018, dated 2023).
Residues, ends and D or L forms follow the SMILES beside them. *: point of attachment. Cbz = O=C(OCc1ccccc1)*

What was measured:
FLAG-FKBP12_NLS [1] = target: T1, FLAG-FKBP12_NLS (Homo sapiens, UniProt P62942); assay: Western blot of stably expressed FLAG-FKBP12_NLS in MDA-MB-231 cells; format: cell-based; set-up: expressed in transfected cells; host or cells: HEK293T, MDA-MB-231 and HEK293 DCAF16+/+ and DCAF16-/- clones (lentiviral pCDH-CMV-MCS-EF1-Puro); details: 8 hours; for effect of inhibitor on degradation of FLAG-FKBP12_NLS in MDA-MB-231 cells: KB02-PEG0-SLF, KB02-SLF or KB02-PEG4-SLF 1 μM
T1 sequence (P62942 whole entry): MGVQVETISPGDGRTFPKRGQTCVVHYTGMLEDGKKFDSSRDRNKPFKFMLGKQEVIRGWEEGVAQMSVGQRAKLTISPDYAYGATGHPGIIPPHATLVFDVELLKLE
Protocol: (§1) FLAG-FKBP12 or FLAG-FKBP12_NLS lentivirus was generated by co-transfection of FLAG-FKBP12 or FLAG-FKBP12_NLS, pCMV-dR8.2 and pMD2.G into HEK 293T cells using FuGene 6 transfection reagent (Promega). Virus-containing medium were collected 48 h after transfection, filtered with […] filter, and used to transduce HEK293T and MDA-MB-231 cells in the presence of 10 μg/mL polybrene (Santa Cruz). 72 h after transduction, puromycin (2 μg/mL) was added to cells. HEK293T cells stably expressing FLAG-FKBP12 or FLAG-FKBP12_NLS were obtained after puromycin selection for 7 days. HEK293T cells stably expressing pCDH empty vector were generated in parallel as control.
(§2) Cells were collected and lysed in 1% NP-40 lysis buffer (25 mM Tris-HCl pH 7.4, 150 mM NaCl, 10% glycerol, 1% Nonidet P-40) with complete protease inhibitor cocktail (Roche). Cells were vortexed and sonicated for 5 pulses (40%, 4). The supernatant was collected after centrifugation at 16,000 g for 10 min at 4° C. Protein concentration was determined by DC assay (Bio-Rad). Protein lysate was heated at 95° C. for 5 min in 1× Laemmli sample buffer. Proteins were resolved by 12% or 14% Novex Tris-Glycine Mini Gels (Invitrogen) and transferred to polyvinylidene fluoride (PVDF) membrane (0.2 Bio-Rad). The membrane was blocked with 5% BSA in TBST buffer (0.1% Tween 20, 20 mM Tris-HCl 7.6, 150 mM NaCl) at room temperature for 1 h. The antibody was diluted with fresh 5% BSA in TBST buffer (1:10000 dilution for FLAG, HA and β-Actin, 1:1000 dilution for others) and incubated with membrane (1 h room temperature for FLAG, HA and β-Actin, overnight 4° C. for others). Membrane was washed three times with TBST buffer and incubated with secondary antibody (1:5000 dilution in 5% BSA in TBST) at room temperature for 1 h. Membrane was washed three times with TBST buffer. The chemiluminescence signal in membrane was recorded after developing in ECL or ECL plus western blotting detection reagent using CL-XPosure film (Thermo Scientific). Relative band intensities were quantified using ImageJ.

[2] = target: T2, HA-DCAF16 and FLAG-FKBP12_NLS (Homo sapiens, UniProt P62942+Q9NXF7); assay: Co-immunoprecipitation of HA-DCAF16 with FLAG-FKBP12_NLS (ternary complex) in HEK293T cells; format: cell-based; details: 5 μM, MG132 10 μM, 2 hours
T2 construct: expressed in transfected cells; host or cells: HEK293T stably expressing FLAG-FKBP12_NLS, transiently transfected with HA-DCAF16 (pRK5)
T2 sequence (Q9NXF7 whole entry): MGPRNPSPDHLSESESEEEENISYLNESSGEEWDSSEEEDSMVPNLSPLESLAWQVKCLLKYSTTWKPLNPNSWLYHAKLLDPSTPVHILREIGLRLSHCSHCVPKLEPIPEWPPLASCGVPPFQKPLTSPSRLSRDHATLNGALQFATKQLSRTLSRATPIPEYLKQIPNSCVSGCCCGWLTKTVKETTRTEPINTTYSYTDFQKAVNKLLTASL
T2 sequence (P62942 2-108): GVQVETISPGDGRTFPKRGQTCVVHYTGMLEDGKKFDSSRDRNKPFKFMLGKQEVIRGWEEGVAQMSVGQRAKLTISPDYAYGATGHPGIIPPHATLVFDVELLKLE
T2 sequence (Q16531 whole entry partner): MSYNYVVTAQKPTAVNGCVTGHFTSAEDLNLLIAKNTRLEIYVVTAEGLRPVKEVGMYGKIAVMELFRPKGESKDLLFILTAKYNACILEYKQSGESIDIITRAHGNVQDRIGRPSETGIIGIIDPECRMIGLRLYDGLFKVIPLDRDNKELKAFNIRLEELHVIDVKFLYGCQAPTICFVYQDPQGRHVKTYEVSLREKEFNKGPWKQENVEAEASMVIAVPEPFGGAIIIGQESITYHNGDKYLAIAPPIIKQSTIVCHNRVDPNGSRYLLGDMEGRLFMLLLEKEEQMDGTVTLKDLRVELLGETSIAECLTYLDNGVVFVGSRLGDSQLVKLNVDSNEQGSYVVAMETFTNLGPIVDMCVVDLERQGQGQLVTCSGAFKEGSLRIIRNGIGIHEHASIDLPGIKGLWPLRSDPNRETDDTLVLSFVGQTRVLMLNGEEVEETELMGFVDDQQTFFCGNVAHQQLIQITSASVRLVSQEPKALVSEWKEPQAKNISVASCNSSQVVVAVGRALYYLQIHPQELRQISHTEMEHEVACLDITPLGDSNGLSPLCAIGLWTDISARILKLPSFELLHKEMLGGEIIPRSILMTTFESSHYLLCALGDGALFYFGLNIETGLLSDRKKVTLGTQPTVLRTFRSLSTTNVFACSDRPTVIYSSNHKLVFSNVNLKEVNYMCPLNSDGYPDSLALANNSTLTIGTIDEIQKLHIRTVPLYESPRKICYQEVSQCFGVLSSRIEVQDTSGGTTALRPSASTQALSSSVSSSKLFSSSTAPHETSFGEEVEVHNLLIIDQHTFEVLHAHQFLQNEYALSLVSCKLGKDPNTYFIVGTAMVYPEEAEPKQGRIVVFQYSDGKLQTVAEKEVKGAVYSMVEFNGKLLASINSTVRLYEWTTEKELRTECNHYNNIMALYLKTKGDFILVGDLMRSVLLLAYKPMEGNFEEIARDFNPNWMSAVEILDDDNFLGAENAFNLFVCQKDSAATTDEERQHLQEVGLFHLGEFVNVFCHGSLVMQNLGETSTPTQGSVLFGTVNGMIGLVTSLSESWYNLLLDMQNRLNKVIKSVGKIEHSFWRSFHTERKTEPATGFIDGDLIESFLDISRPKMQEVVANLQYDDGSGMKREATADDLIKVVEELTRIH
Protocol: as §2
Cells were collected and lysed in 1% NP-40 lysis buffer with complete protease inhibitor cocktail on ice for 10 min, followed by 5 pulses of sonication (40%, 4). After centrifugation at 16,000 g for 10 min at 4° C., the supernatant was collected. FLAG affinity gel (20 μL slurry per sample) was incubated with protein lysates at 4° C. for 1 h and washed four times with IP washing buffer. The affinity gel was heated at 95° C. for 10 min in 2× Laemmli sample buffer, followed by western blot analysis.

FLAG-FKBP12_NLS [3] = target: T1, FLAG-FKBP12_NLS; assay: Anti-FLAG western blot of stably expressed nuclear FKBP12 (FLAG-FKBP12_NLS) in HEK293T cells; format: cell-based; set-up: expressed in transfected cells; host or cells: HEK293T, MDA-MB-231 and HEK293 DCAF16+/+ and DCAF16-/- clones (lentiviral pCDH-CMV-MCS-EF1-Puro); details: for nuclear FKBP12 (FKBP12_NLS) protein level: 2 μM, 8 or 24 h; for effect of inhibitor on KB02-SLF-mediated loss of FKBP12_NLS: KB02-SLF 1 μM with MG132 10 μM or MLN4924 1 μM
Source text: (§3) FLAG-tagged variants of FKBP12 (FLAG-FKBP12) or (2) FKBP12 with a C-terminal nuclear localization sequence (FLAG-FKBP12_NLS) were then stably expressed in HEK293T cells to provide cell models for evaluating cytosolic- and nuclear-localized E3-mediated degradation pathways, respectively.
as §1
shRNA lentivirus was generated by co-transfection of shRNA-containing vector, pCMV-dR8.2 and pMD2.G into HEK 293T cells using FuGene 6 transfection reagent (Promega). Virus-containing medium were collected 48 h after transfection and used to transiently transduce HEK293T cells stably expressing FLAG-FKBP12_NLS for 48 h. Lentiviral shRNAs targeting human DCAF16 or DTL were in pLKO.1 vector and purchased from Sigma. The sequences of shRNAs is described below.
as §2

HEK293T cells = assay: Cell viability assay (Cell Titer Glo); format: cell-based, human; details: 24 hours, read-out: cytotoxicity IC50
Protocol: HEK293T cells were seeded in 96-well clear bottom white plate (Corning) at 3×10^4 cells per well in 100 μL of DMEM medium and grown for 24 h. The cells were treated with 0.625, 1.25, 2.5, 5, 10, 20 and 40 μM of KB02-SLF or KB02-JQ1 (DMSO stock, final DMEM concentration is 0.1% (v/v)) in 100 μL of DMEM medium for 24 h. 50 μL of Cell Titer Glo reagent (Promega) was added to each well and incubate for 10 min at room temperature. The luminescence was read on CLARIOstar (BMG LAB TECH).

BRD4 = target: T3, BRD4 (Homo sapiens, UniProt O60885); assay: Western blot of endogenous BRD4 in HEK293T cells; format: cell-based; details: 20 μM KB02-JQ1; 10 μM MG132 or 1 μM MLN4924
T3 construct: degradation of endogenous BRD4 in HEK293T cells; endogenous in cells; host or cells: HEK293T (A10, A16); HEK293 DCAF16+/+ and DCAF16-/- clones (A11)
Protocol: as §2

FLAG-FKBP12 = target: T4, FLAG-FKBP12 (Homo sapiens, UniProt P62942); assay: Anti-FLAG western blot of stably expressed cytosolic FKBP12 (FLAG-FKBP12) in HEK293T cells; format: cell-based; details: lenalidomide-SLF positive control, 4 or 24 h
T4 construct: expressed in transfected cells; host or cells: HEK293T (lentiviral transduction, puromycin selection)
T4 sequence (P62942 whole entry): as the sequence (P62942 whole entry) above
Source text: as §3
FLAG-FKBP12 or FLAG-FKBP12_NLS lentivirus was generated by co-transfection of FLAG-FKBP12 or FLAG-FKBP12_NLS, pCMV-dR8.2 and pMD2.G into HEK 293T cells using FuGene 6 transfection reagent (Promega). Virus-containing medium were collected 48 h after transfection, filtered with […] filter, and used to transduce HEK293T and MDA-MB-231 cells in the presence of 10 μg/mL polybrene (Santa Cruz). 72 h after transduction, puromycin (2 μg/mL) was added to cells. HEK293T cells stably expressing FLAG-FKBP12 or FLAG-FKBP12_NLS were obtained after puromycin selection for 7 days. […]
Cells were collected and lysed in 1% NP-40 lysis buffer (25 mM Tris-HCl pH 7.4, 150 mM NaCl, 10% glycerol, 1% Nonidet P-40) with complete protease inhibitor cocktail (Roche). […] Protein concentration was determined by DC assay (Bio-Rad). […] The chemiluminescence signal in membrane was recorded after developing in ECL or ECL plus western blotting detection reagent using CL-XPosure film (Thermo Scientific). Relative band intensities were quantified using ImageJ.

Q: With `CCC(C)(C)C(=O)C(=O)N1CCCC[C@H]1C(=O)O[C@H](CCc1ccc(OC)c(OC)c1)c1cccc(NC(=O)CCOCCOCCOCCOCCNC(=O)COc2ccc3c(c2)CCCN3C(=O)CCl)c1` [KB02-PEG4-SLF, (R)-1-(3-(1-((1-(2-chloroacetyl)-1,2,3,4-tetrahydroquinolin-6-yl)oxy)-2-oxo-6,9,12,15-tetraoxa-3-azaoctadecan-18-amido)phenyl)-3-(3,4-dimethoxyphenyl)propyl (S)-1-(3,3-dimethyl-2-oxopentanoyl)piperidine-2-carboxylate] as the compound, how does the “degradation of FLAG-FKBP12_NLS in MDA-MB-231 cells” value (FLAG-FKBP12_NLS [1]; 1 μM) read?
A: degradation of stably expressed FLAG-FKBP12_NLS

Q: What about the “co-immunoprecipitation of HA-DCAF16 with FLAG-FKBP12_NLS” value (from here on “co-immunoprecipitation of HA-DCAF16”) [2] of the same compound?
A: co-immunoprecipitated with HA-DCAF16

Q: Which results are given for `COc1ccc2c(c1)CCCN2C(=O)CCl` [KB02, reference compound]?
A: FKBP12_NLS level in cells treated with the separate components of KB02-SLF (FLAG-FKBP12_NLS [3]; HEK293T, 1.5 μM, 8 h): FKBP12_NLS was not reduced; IC50 (HEK293T cells): 23 ± 1.2 µM

Q: For `CCC(=O)N1CCCc2cc(OCC(=O)NCCOCCOCCC(=O)Nc3cccc([C@@H](CCc4ccc(OC)c(OC)c4)OC(=O)[C@@H]4CCCCN4C(=O)C(=O)C(C)(C)CC)c3)ccc21` [C-KB02-SLF, (R)-3-(3,4-dimethoxyphenyl)-1-(3-(3-(2-(2-(2-((1-propionyl-1,2,3,4-tetrahydroquinolin-6-yl)oxy)acetamido)ethoxy)ethoxy)propanamido)phenyl)propyl (S)-1-(3,3-dimethyl-2-oxopentanoyl)piperidine-2-carboxylate], which “nuclear FKBP12 (FKBP12_NLS) protein level” value (FLAG-FKBP12_NLS [3]; HEK293T) is on record?
A: Reductions in FKBP12_NLS were not observed

Q: What about the “co-immunoprecipitation of HA-DCAF16” value [2] of the same compound?
A: DCAF16 was not co-immunoprecipitated

Q: What does the source list for `NS(=O)(=O)OC[C@@H]1C[C@@H](n2ccc3c(N[C@H]4CCc5ccccc54)ncnc32)C[C@@H]1O` [MLN4924, reference compound]?
A: effect of inhibitor on KB02-SLF-mediated loss of FKBP12_NLS (FLAG-FKBP12_NLS [3]; 8 h): blocked; effect of inhibitor on degradation of FLAG-FKBP12_NLS in MDA-MB-231 cells (FLAG-FKBP12_NLS [1]): blocked; effect of inhibitor on KB02-JQ1-mediated BRD4 degradation (BRD4): blocked

Q: `C=CC(=O)N(c1ccc(Br)cc1)c1ccc(C(=O)NCCOCCOCCOCCC(=O)Nc2cccc([C@@H](CCc3ccc(OC)c(OC)c3)OC(=O)[C@@H]3CCCCN3C(=O)C(=O)C(C)(C)CC)c2)cc1` [KB05-SLF, (R)-1-(3-(1-(4-(N-(4-bromophenyl)acrylamido)phenyl)-1-oxo-5,8,11-trioxa-2-azatetradecan-14-amido)phenyl)-3-(3,4-dimethoxyphenyl)propyl (S)-1-(3,3-dimethyl-2-oxopentanoyl)piperidine-2-carboxylate] was tested. Which “nuclear FKBP12 (FKBP12_NLS) protein level” value (FLAG-FKBP12_NLS [3]; HEK293T) did it give?
A: did not support FKBP12_NLS degradation

Q: And the “co-immunoprecipitation of HA-DCAF16” value [2]?
A: DCAF16 was not co-immunoprecipitated

Q: `CC(C)C[C@@H](C=O)NC(=O)[C@H](CC(C)C)NC(=O)[C@H](CC(C)C)NC(=O)OCc1ccccc1` [MG132, reference compound] (Cbz-Leu-Leu-Leu-aldehyde) was tested. Which “effect of inhibitor on KB02-SLF-mediated loss of FKBP12_NLS” value (FLAG-FKBP12_NLS [3]; 8 h) did it give?
A: blocked

Q: And the “effect of inhibitor on degradation of FLAG-FKBP12_NLS in MDA-MB-231 cells” value (FLAG-FKBP12_NLS [1])?
A: blocked

Q: What about the “effect of inhibitor on KB02-JQ1-mediated BRD4 degradation” value (BRD4) of the same compound?
A: blocked

Q: Which “nuclear FKBP12 degradation” value (FLAG-FKBP12_NLS [3]; HEK293T, lenalidomide-SLF positive control, 4 or 24 h) does the source give for `CCC(C)(C)C(=O)C(=O)N1CCCC[C@H]1C(=O)O[C@H](CCc1ccc(OC)c(OC)c1)c1cccc(NC(=O)CCCC(=O)NCCCCC(=O)Nc2cccc3c2CN(C2CCC(=O)NC2=O)C3=O)c1` (stereo partly drawn) [lenalidomide-SLF, (1R)-3-(3,4-dimethoxyphenyl)-1-(3-(5-((5-((2-(2,6-dioxopiperidin-3-yl)-1-oxoisoindolin-4-yl)amino)-5-oxopentyl)amino)-5-oxopentanamido)phenyl)propyl (2S)-1-(3,3-dimethyl-2-oxopentanoyl)piperidine-2-carboxylate, reference compound] here?
A: degraded

Q: What about the “cytosolic FKBP12 degradation” value (FLAG-FKBP12) of the same compound?
A: degraded

Q: With `CCC(C)(C)C(=O)C(=O)N1CCCC[C@H]1C(=O)O[C@H](CCc1ccc(OC)c(OC)c1)c1cccc(NC(=O)CCOCCOCCNC(=O)CCNC(=O)c2cc(NC(=O)CCl)cc(C(F)(F)F)c2)c1` [KB03-SLF, (R)-1-(3-(1-(3-(2-chloroacetamido)-5-(trifluoromethyl)phenyl)-1,5-dioxo-9,12-dioxa-2,6-diazapentadecan-15-amido)phenyl)-3-(3,4-dimethoxyphenyl)propyl (S)-1-(3,3-dimethyl-2-oxopentanoyl)piperidine-2-carboxylate] as the compound, how does the “nuclear FKBP12 (FKBP12_NLS) protein level” value (FLAG-FKBP12_NLS [3]; HEK293T) read?
A: did not support FKBP12_NLS degradation

Q: What about the “co-immunoprecipitation of HA-DCAF16” value [2] of the same compound?
A: DCAF16 was not co-immunoprecipitated
